Holding throughout (assay type): biochemical
The target in one experiment is VIM-2 (Escherichia coli, UniProt Q5U7L7). Nature of the experiment: Enzymatic assay for determination of inhibition constants, reporter substrate method, purified VIM-2.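 Also: purified VIM-2 hydrolysing a reporter substrate (imipenem, meropenem, cefotaxime or nitrocefin), reaction rate read as absorbance change, HEPES 50 mM at pH 7.5.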
Another experiment addresses NDM-1 (Klebsiella pneumoniae, UniProt C7C422). Kind of experiment: Enzymatic assay for determination of inhibition constants, reporter substrate method, purified NDM-1.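 Also: purified enzyme activity followed as absorbance change from reporter substrate hydrolysis on a UV-Vis spectrophotometer or plate reader, 50 mM HEPES pH 7.5.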 The settings on record: isolated MBL, competitive inhibition model.
The target in another experiment is IMP-1 (Serratia marcescens, UniProt P52699). Kind of experiment: Enzymatic assay for determination of inhibition constants, reporter substrate method, purified IMP-1.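 As to all read-outs here: purified IMP-1 (1-70 nM) hydrolysing a reporter substrate, initial rates followed as absorbance change at 260, 300 or 482 nm in 50 mM HEPES pH 7.5.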 The settings on record: for Ki: isolated MBL, competitive inhibition model; for % inhibition IMP-1: at 200 μM (maximal tested concentration).
[1] abbreviates: at 100 μM (maximal tested concentration).
The mark [2] stands for this setting: isolated MBL, competitive inhibition model, read-out: Ki VIM-2.

This note sets out measurements from US20220000841A1, “INHIBITORS OF METALLO-BETA-LACTAMASES” (CENTRE NATIONAL DE LA RECHERCHE SCIENTIFIQUE, priority 2018, published 2022).

What is called Ki is a measure of affinity in units of concentration, obtained from inhibition or displacement.

Each structure is given as a SMILES string. Where two headings read alike, the source gives them in different places. Bounds are passed on as bounds.

Sequence of IMP-1 (P52699 19-246, looked up, species assumed): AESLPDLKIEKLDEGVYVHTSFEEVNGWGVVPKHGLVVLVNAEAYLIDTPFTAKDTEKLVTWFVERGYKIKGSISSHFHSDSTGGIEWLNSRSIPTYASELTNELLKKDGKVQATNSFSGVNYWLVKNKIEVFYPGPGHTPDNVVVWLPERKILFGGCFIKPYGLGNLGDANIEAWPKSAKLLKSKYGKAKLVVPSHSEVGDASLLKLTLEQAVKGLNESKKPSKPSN
Sequence of NDM-1 (C7C422 29-270, looked up, species assumed): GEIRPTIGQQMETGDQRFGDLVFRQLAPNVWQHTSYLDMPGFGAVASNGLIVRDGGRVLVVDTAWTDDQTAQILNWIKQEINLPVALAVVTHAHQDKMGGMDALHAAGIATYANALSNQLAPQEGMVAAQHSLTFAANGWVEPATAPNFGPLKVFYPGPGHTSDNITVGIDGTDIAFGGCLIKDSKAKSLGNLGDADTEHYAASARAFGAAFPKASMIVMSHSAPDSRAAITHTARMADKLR
Description for NDM-1: The reaction rate was measured as the variation of absorbance observed upon substrate hydrolysis in a UV-Vis spectrophotometer or microplate reader at a wavelength of 300 nm (imipenem, meropenem), 260 nm (cefotaxime) or 482 nm (nitrocefin) in 50 mM HEPES buffer (pH 7.5) and in the presence of a purified MBL enzyme (such as VIM-1, VIM-2, VIM-4, NDM-1 and IMP-1, at a final concentration ranging 1-70 nM).
The inhibition constants (Ki) were determined on the basis of a model of competitive inhibition by analyzing the dependence of the ratio v0/vi (v0, hydrolysis velocity in the absence of inhibitor; vi, hydrolysis velocity in the presence of inhibitor) as a function of [I] as already described [Docquier J. D., Lamotte-Brasseur J., Galleni M., Amicosante G., Frère J. M., Rossolini G. M. (2003) J. Antimicrob. […] The slope of the plot of v0/vi vs [I], which corresponds to Km^S/(Km^S+[S])Ki (where Km^S is the Km value of the reporter substrate and [S] its concentration in the reaction mixture) and allowed the calculation of the Ki value. Alternatively, a Dixon plot analysis was carried out, by measuring the initial hydrolysis rates in the presence of variable concentrations of inhibitor and substrate.

Regarding `O=C(O)c1ccccc1CCn1c(-c2ccsc2)n[nH]c1=S` [Compound 58, o-{2-[3-(3-Thienyl)-5-thioxo-1,4-dihydro-1,2,4-triazol-4-yl]ethyl}benzoic acid], the “% inhibition VIM-2” value on VIM-2 (setting [1]) was found to be 85% at 100 μM. Besides, the Ki on NDM-1 and at IMP-1 was over 100 µM throughout.

For the compound `Sc1nnc(-c2ccccc2)n1Cc1ccccc1` [Compound 9, 4-benzyl-3-phenyl-4,5-dihydro-1H-1,2,4-triazole-5-thione], the Ki on VIM-2 (setting [2]) is over 100 µM; on NDM-1, over 100 µM; on IMP-1, 1 to 10 µM.

Take `Nc1ccc(CCn2c(-c3ccccc3)n[nH]c2=S)c(C(=O)O)c1` [Compound 61, 5-Amino-2-[2-(3-phenyl-5-thioxo-1,4-dihydro-1,2,4-triazol-4-yl)ethyl]benzoic acid]: the “% inhibition VIM-2” value at VIM-2 (setting [1]) worked out at 75% at 100 μM. The Ki at NDM-1 and at IMP-1 was over 100 µM each time.

Take `Cc1ccccc1-c1n[nH]c(=S)n1/N=C/c1ccccc1C(=O)O` [II, reference compound]: the Ki on VIM-2 (as listed in Table 2, read-out: Ki on VIM-2) fell in the range of 1 to 10 µM.

Take `O=C(O)c1ccccc1CNn1c(-c2cccc(-c3ccccc3)c2)n[nH]c1=S` [Compound 51, o-{[3-(3-Biphenylyl)-5-thioxo-1,4-dihydro-1,2,4-triazol-4-ylamino]methyl}benzoic acid]: the “% inhibition VIM-2” value at VIM-2 (setting [1]) stood at 75% at 100 μM. For the same compound, the Ki on NDM-1 and on IMP-1 was over 100 µM in each case.

In the case of `O=C(O)CCCCCCCn1c(-c2ccccc2)n[nH]c1=S` [Compound 59, 8-(3-Phenyl-5-thioxo-1,4-dihydro-1,2,4-triazol-4-yl)octanoic acid], the “% inhibition VIM-2” value at VIM-2 (setting [1]) is listed as 90% at 100 μM. The Ki at NDM-1 and at IMP-1 was over 100 µM throughout.

`O=C(O)C(SCCn1c(-c2ccccc2)n[nH]c1=S)c1ccccc1` (stereo not shown) [Compound 60, Phenyl[2-(3-phenyl-5-thioxo-1,4-dihydro-1,2,4-triazol-4-yl)ethylthio]acetic acid]: on VIM-2 (setting [1]), the “% inhibition VIM-2” value turned out to be 96% at 100 μM. The Ki at NDM-1 and on IMP-1 was over 100 µM throughout.

Consider `O=C(O)c1cc(O)ccc1CCn1c(-c2ccccc2)n[nH]c1=S` [Compound 53, 5-Hydroxy-2-[2-(3-phenyl-5-thioxo-1,4-dihydro-1,2,4-triazol-4-yl)ethyl]benzoic acid], for which the “% inhibition VIM-2” value at VIM-2 (setting [1]) stood at 90% at 100 μM. In addition, the inhibitory constant (Ki) at NDM-1 and at IMP-1 was over 100 µM throughout.

Regarding `S=c1[nH]nc(-c2ccccc2)n1CCCc1ccccc1` [Compound 8, 3-phenyl-4-(3-phenylpropyl)-4,5-dihydro-1H-1,2,4-triazole-5-thione], the inhibition constant Ki on VIM-2 (setting [2]) and on NDM-1 was over 100 µM each time. For the same compound, at IMP-1, the “% inhibition IMP-1” value is recorded as 70% at 200 μM.

As for `S=c1[nH]nc(-c2ccccc2)n1[C@@H]1C[C@H]1c1ccccc1` [Compound 20, 3-phenyl-4-[(1R,2S)-2-phenylcyclopropyl]-4,5-dihydro-1H-1,2,4-triazole-5-thione], at VIM-2 (at 200 μM (maximal tested concentration)), the “% inhibition VIM-2” value stood at 70% at 200 μM. Moreover, the results for the Ki at NDM-1 and at IMP-1 were 10 to 100 µM and over 100 µM, respectively.

With `S=c1[nH]nc(-c2ccccc2)n1CCc1ccc(OCc2ccccc2)cc1` [Compound 54, 4-[4-(Benzyloxy)phenylethyl]-5-phenyl-1,2,4-triazole-3-thione], the inhibition constant (Ki) on VIM-2 (setting [2]) was 10 to 100 µM; at NDM-1 it was over 100 µM. On IMP-1, the “% inhibition IMP-1” value was found to be 60% at 200 μM.

For `O=C(O)c1cccc(Cn2c(-c3ccccc3)n[nH]c2=S)c1` [Compound 52, m-[(3-Phenyl-5-thioxo-1,4-dihydro-1,2,4-triazol-4-yl)methyl]benzoic acid], the “% inhibition VIM-2” value on VIM-2 (setting [1]) was determined as 84% at 100 μM. In addition, the Ki on NDM-1 and at IMP-1 was over 100 µM each time.

`O=C(O)c1ccccc1CCn1c(-c2ccc3ncccc3c2)n[nH]c1=S` [Compound 56, 2-{2-[3-(Quinolin-6-yl)-5-sulfanylidene-4,5-dihydro-1H-1,2,4-triazol-4-yl]ethyl}benzoic acid]: the “% inhibition VIM-2” value at VIM-2 (setting [1]) is given as 85% at 100 μM. Also, the Ki on NDM-1 and at IMP-1 was over 100 µM throughout.
